Target: T1, bacteriorhodopsin (Halobacterium salinarum, UniProt P02945)
T1 construct: gene bop; synthetic gene (GeneArt), start codon from vector, C-terminal triple StrepII tag, transiently expressed retinal-free in HEK293-EBNA1, purified in DDM; cysteine-free parent protein
T1 sequence (P02945 14-262): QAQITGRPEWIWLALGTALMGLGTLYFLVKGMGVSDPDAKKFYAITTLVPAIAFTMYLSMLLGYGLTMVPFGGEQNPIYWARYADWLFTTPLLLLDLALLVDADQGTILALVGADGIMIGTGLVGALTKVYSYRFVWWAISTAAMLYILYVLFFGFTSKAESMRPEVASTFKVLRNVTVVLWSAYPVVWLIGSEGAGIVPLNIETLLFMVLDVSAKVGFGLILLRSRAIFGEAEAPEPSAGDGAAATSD
Experiment: native mass spectrometry of purified protein
Assay type: binding
Details: retinal added during purification; DDM micelles; 150 mM ammonium acetate pH 7.5; isomer not stated

Question: Which “native mass spectrometry of purified protein” value does the source give for `CC1=C(/C=C/C(C)=C/C=C/C(C)=C/C=O)C(C)(C)CCC1` [retinal] here?
Answer: The value was “Upon addition of retinal during purification, bacteriorhodopsin mass spectra indicated peaks corresponding to the mass”.

Reference: PMC5668376, “Stochastic palmitoylation of accessible cysteines in membrane proteins revealed by native mass spectrometry” (Nature Communications, 2017)
